Laboratory results from patent US12013389B2, “Method of evaluating pathological conditions of heart failure” (NATIONAL UNIVERSITY CORPORATION HOKKAIDO UNIVERSITY, priority 2018, dated 2024).
Values belong to the compound of their own block, whether it stands above or below them.

Legend:
H9c2 cells [1] = assay: Respiratory capacity related to mitochondrial complex II in glycine-treated H9c2 cells; assay type: cell-based
Procedure: (§1) When glycine was used, glycine was added to the culture medium for cultured H9c2 cells so that the concentration was 100 mM, and the cells were cultured for 6 hours. After culturing, the cells were collected and mitochondria were isolated. Then, the succinylation level of the mitochondrial proteins was measured by WB.
(§2) In addition, in the heme synthesis process, glycine and succinyl-CoA reacted to synthesize ALA. […] The succinylation level and the respiratory capacity related to mitochondrial complex II were examined.

H9c2 cells [2] = assay: Succinylation level of mitochondrial proteins of glycine-treated H9c2 cells; assay type: cell-based
Procedure: as §1, §2

mitochondrial complex II [3] = molecular target: T1, mitochondrial complex II (Mus musculus, UniProt Q8K2B3+Q9CQA3+Q9CXV1+Q9CZB0); assay: Mitochondrial respiratory capacity related to complex II after adding succinyl-CoA to isolated mitochondria (high-resolution respiration measurement); assay type: biochemical; conditions: mitochondria isolated from wild type mice
T1 construct: from tissue; host or cells: mitochondria isolated from the left ventricle (myocardium) of C57BL/6J mice (wild type, sham control or HF model)
T1 sequence (Q8K2B3 43-664): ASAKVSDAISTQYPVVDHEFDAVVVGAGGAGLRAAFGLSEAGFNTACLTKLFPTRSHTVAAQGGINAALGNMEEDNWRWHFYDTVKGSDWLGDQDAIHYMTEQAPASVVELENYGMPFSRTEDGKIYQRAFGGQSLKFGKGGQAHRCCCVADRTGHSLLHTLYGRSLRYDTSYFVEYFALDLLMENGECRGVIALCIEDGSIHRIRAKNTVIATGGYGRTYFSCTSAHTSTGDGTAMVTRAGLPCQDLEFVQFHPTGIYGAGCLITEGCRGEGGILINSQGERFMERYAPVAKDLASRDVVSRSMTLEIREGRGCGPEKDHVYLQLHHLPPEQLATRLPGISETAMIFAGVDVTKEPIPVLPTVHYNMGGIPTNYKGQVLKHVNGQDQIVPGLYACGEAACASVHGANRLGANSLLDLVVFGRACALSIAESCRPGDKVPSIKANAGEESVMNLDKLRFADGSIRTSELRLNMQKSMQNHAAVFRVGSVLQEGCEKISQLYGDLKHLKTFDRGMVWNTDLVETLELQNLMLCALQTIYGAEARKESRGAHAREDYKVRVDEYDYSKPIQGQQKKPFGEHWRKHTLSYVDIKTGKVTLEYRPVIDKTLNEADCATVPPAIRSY
T1 sequence (Q9CQA3 29-282 limits assumed): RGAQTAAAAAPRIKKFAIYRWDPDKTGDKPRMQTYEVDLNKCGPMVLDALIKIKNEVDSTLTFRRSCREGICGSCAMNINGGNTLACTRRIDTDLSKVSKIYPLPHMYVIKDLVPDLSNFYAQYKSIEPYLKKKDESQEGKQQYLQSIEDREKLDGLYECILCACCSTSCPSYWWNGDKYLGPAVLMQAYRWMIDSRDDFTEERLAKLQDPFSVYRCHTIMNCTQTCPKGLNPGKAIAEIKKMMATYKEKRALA
T1 sequence (Q9CZB0 30-169): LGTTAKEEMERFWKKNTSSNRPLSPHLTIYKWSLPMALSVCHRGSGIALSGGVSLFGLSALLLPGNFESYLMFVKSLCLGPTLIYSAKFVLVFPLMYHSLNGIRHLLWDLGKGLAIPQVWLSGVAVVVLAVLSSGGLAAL
T1 sequence (Q9CXV1 57-159): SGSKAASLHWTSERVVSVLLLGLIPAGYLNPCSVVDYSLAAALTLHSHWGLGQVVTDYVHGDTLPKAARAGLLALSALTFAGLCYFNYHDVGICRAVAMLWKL
Procedure: First, the heart (left ventricle) extracted from euthanized mice under anesthesia was immersed in a tissue preservation solution BIOPS (2.77 mM CaK2EGTA, 7.23 mM K2EGTA, 5.77 mM Na2ATP, 6.56 mM MgCl2/6H2O, 20 mM taurine, 15 mM Na2 phosphocreatine, 20 mM imidazole, 0.5 mM dithiothreitol, 50 mM MES hydrate, pH 7.1), and then shredded in a tissue isolation buffer (100 mM sucrose, 100 mM KCl, 50 mM tris-HCl, 1 mM KH2PO4, 0.1 mM EGTA, 0.2% bovine serum albumin, pH 7.4). Protease was added to this shredded product to cause an enzyme reaction and homogenization was then performed. The obtained homogenized solution was centrifuged to remove the supernatant, and the precipitate was washed with a tissue isolation buffer twice. […]
A mitochondrial respiratory capacity (oxidative phosphorylation: OXPHOS) was measured by a high-resolution respiration measurement method. […] An oxygen consumption amount was calculated using Datlab software, and in this case, correction was performed per tissue weight or per mitochondrion. […]
(2) 10 mmol/L of glutamic acid, 2 mmol/L of malic acid, and 5 mmol/L of pyruvic acid, which are substrates related to mitochondrial complex I, were added, and the oxygen consumption amount was measured (CI_OXPHOS).
(§3) (3) 10 mmol/L of succinic acid, which is a substrate related to mitochondrial complex II, was added, and the oxygen consumption amount was measured (CI+II_OXPHOS). […]

mitochondrial complex II [4] = assay: Expression level of mitochondrial complex II per mitochondrion (blue native method, anti-SDHA); assay type: biochemical; conditions: mitochondria isolated from HF model mice treated with 1 mM succinyl-CoA
Procedure: Based on the results so far, it was clearly understood that the respiratory capacity related to mitochondrial complex II could be controlled by the expression level of mitochondrial complex II per mitochondrion. Therefore, for the mitochondria isolated from the control mice and the HF model mice and the mitochondria isolated from the HF model mice and then treated with 1 mM succinyl-CoA, the expression level of mitochondrial complex II per mitochondrion was evaluated using anti-SDHA mouse monoclonal antibodies (1:1,000, ab14715, commercially available from Abeam) by a blue native method.

mitochondrial proteins = assay: Succinylation assay of mitochondrial proteins (isolated mouse heart mitochondria, western blotting); assay type: biochemical, mice
Procedure: First, the heart (left ventricle) extracted from euthanized mice under anesthesia was immersed in a tissue preservation solution BIOPS (2.77 mM CaK2EGTA, 7.23 mM K2EGTA, 5.77 mM Na2ATP, 6.56 mM MgCl2/6H2O, 20 mM taurine, 15 mM Na2 phosphocreatine, 20 mM imidazole, 0.5 mM dithiothreitol, 50 mM MES hydrate, pH 7.1), and then shredded in a tissue isolation buffer (100 mM sucrose, 100 mM KCl, 50 mM tris-HCl, 1 mM KH2PO4, 0.1 mM EGTA, 0.2% bovine serum albumin, pH 7.4). Protease was added to this shredded product to cause an enzyme reaction and homogenization was then performed. The obtained homogenized solution was centrifuged to remove the supernatant, and the precipitate was washed with a tissue isolation buffer twice. A suspension buffer (225 mM mannitol, 75 mM sucrose, 10 mM tris-HCl, 0.1 mM EDTA, pH 7.4) was added to the washed precipitate and the precipitate was dissolved.
[…] Then, the succinylation level of the mitochondrial proteins was measured by western blotting (WB).
Specifically, first, succinyl-CoA (0, 1, 3, or 10 mM) was added to the mitochondria collected from the left ventricle of wild type mice (C57BL/6J), succinylation assay was performed, and the succinylation level of the mitochondrial proteins (the relative amount when the amount of succinylation proteins without addition of succinyl-CoA (0 mM) was set as 1) was examined. […]

HF model mice [5] = assay: Exercise capacity (treadmill) of HF model mice given ALA; assay type: in vivo; conditions: HF model mice with ALA vs without ALA; treadmill run until exhaustion
Procedure: (§4) The left anterior descending coronary artery of the heart of 10- to 12-week old male C57BL/6J mice (body weight of 23 to 26 g) was ligated to cause myocardial infarction (MI). The body weight of the mice was measured before the operation, a mixed anesthetic containing 3 types including 0.3 mg/kg BW of medetomedine hydrochloride, 4.0 mg/kg BW of midazolam, and 5.0 mg/kg BW of butorphanol tartrate was intraperitoneally administered, and it was confirmed that the depth of anesthesia was sufficient. […]
(§5) Specifically, after the HF model mice were underwent a left coronary artery ligation operation, an aqueous solution (50 mg/L) containing ALA (≥98%, commercially available from Sigma Aldrich) was administered by forced drinking (6 to 8 mg/kg/day), and on the 28th day after the operation, the mitochondrial functions were measured using echocardiography and a mitochondrial respiratory capacity measurement device. […]
In addition, the exercise capacities of the HF model mice without administration of ALA and the HF model mice to which ALA was administered were examined. The exercise capacity was expressed as a product of an exercise time and a body weight. The exercise time was measured using a small animal treadmill, and mice were at rest for 10 minutes, and w-up for 10 minutes (6 m/min, inclination of 10 degrees), and then forced to run until exhaustion by increasing a load (2 m/2 min). […]

[6] = system: mitochondrial complex I and mitochondrial complex II; assay: Respiratory capacity related to complex I and complex II in myocardial mitochondria of HF model mice given ALA; assay type: in vivo; conditions: ALA 50 mg/L in drinking water (6 to 8 mg/kg/day), day 28 after operation
Procedure: (§6) A mitochondrial respiratory capacity (oxidative phosphorylation: OXPHOS) was measured by a high-resolution respiration measurement method. Specifically, isolated mitochondria (50 to 100 μg) or myocardial fibrous tissues (0.5 to 3 mg) after the cell membrane permeation treatment were used as a test sample, and measurement was performed using a mitochondrial oxygen activity/cell metabolic energy analyzing device (product name: “OROBOROS Oxygraph-2 k,” commercially available from Innsbruck) (hereinafter referred to as a “mitochondrial respiratory capacity measurement device” in some cases) under an environment at 37° C. according to the following protocol. An oxygen consumption amount was calculated using Datlab software, and in this case, correction was performed per tissue weight or per mitochondrion.
as §3, §5

mitochondrial complex II [7] = assay: Respiratory capacity related to complex II in myocardial mitochondria of HF model mice given ALA; assay type: in vivo; conditions: ALA 50 mg/L in drinking water (6 to 8 mg/kg/day), day 28 after operation
Procedure: as §6
(4) In order to observe the respiration of OXPHOS of mitochondrial complex II alone, 0.5 μmol/L of rotenone, which is an inhibitor of mitochondrial complex I, was added and the oxygen consumption amount was measured (CII_OXPHOS).
(§7) The left anterior descending coronary artery of the heart of 10- to 12-week old male C57BL/6J mice (body weight of 23 to 26 g) was ligated to cause myocardial infarction (MI). […]

mitochondrial complex IV = assay: Respiratory capacity related to complex IV in myocardial mitochondria of HF model mice given ALA; assay type: in vivo; conditions: ALA 50 mg/L in drinking water (6 to 8 mg/kg/day), day 28 after operation
Procedure: as §6
(8) The respiratory capacity when 2 mmol/L of ascorbic acid and 0.5 mmol/L of TMPD (N,N,N′,N′-tetramethyl-p-phenylenediamine), which are substrates of mitochondrial complex IV, were added was measured. Next, the respiratory capacity when 100 mmol/L of sodium azide as an inhibitor was added was measured, and a difference therebetween was calculated (CIV_OXPHOS).
as §7

HF model mice [8] = assay: Echocardiography of HF model mice given ALA; assay type: in vivo; conditions: HF model mice with ALA vs without ALA; 6 to 8 mg/kg/day; day 28 after operation
Procedure: Echocardiography was performed under anesthesia ([…] 8 μL/gBW, intraperitoneal administration) with a short duration of action and least impact on the cardiovascular system. The limbs and tail were fixed in a lying position to an examination table with a tape and the anterior chest wall of the mice was depilated with a depilatory cream. Using an ultrasonic diagnostic device and a 12 MHz linear probe, optimal 2D parasternal short-axis images were visualized at the papillary muscle level. Switching to an M mode method was performed, recording was performed at a recording paper speed of 40 mm/s, and a heart rate, a left ventricular end-diastolic dimension, a left ventricular end-systolic dimension, a left ventricular anterior wall thickness, a left ventricular posterior wall thickness, and a left ventricular fractional shortening were measured.
as §4

[9] = H9c2 cells treated with glycine, succinyl-CoA added

Compound: NCC(=O)O [glycine, reference compound]
respiratory capacity related to mitochondrial complex II (H9c2 cells [1]; cells treated with glycine): decreases | succinylation level of mitochondrial proteins (H9c2 cells [2]; H9c2 cells treated with glycine (100 mM, 6 hours)): decreased

respiratory capacity related to mitochondrial complex II (mitochondrial complex II [3]; 1 mM succinyl-CoA): increased | respiratory capacity related to mitochondrial complex II (mitochondrial complex II [3]; 10 mM succinyl-CoA): significantly decreased
Compound: CC(C)(COP(=O)(O)OP(=O)(O)OC[C@H]1O[C@@H](n2cnc3c(N)ncnc32)[C@H](O)[C@@H]1OP(=O)(O)O)[C@@H](O)C(=O)NCCC(=O)NCCSC(=O)CCC(=O)O [succinyl-CoA]
respiratory capacity related to mitochondrial complex II (H9c2 cells [1]; [9]): improved | succinylation level of mitochondrial proteins (H9c2 cells [2]; [9]): improved | amount of mitochondrial complex II (expression level per mitochondrion) (mitochondrial complex II [4]): remained reduced | succinylation in the mitochondrial protein (mitochondrial proteins; mitochondria from left ventricle of wild type mice (C57BL/6J), succinyl-CoA 1, 3 or 10 mM, relative to 0 mM): increased | succinylation level of mitochondrial proteins (mitochondrial proteins; mitochondria isolated from HF model mice, 0.1 mM succinyl-CoA): improved

Compound: NCC(=O)CCC(=O)O [ALA, 5-aminolevulinic acid]
exercise capacity (exercise time x body weight) (HF model mice [5]): significantly improved | respiratory capacity related to mitochondrial complex I and mitochondrial complex II [6]: improved | respiratory capacity related to mitochondrial complex II (mitochondrial complex II [7]): improved | respiratory capacity related to mitochondrial complex IV (mitochondrial complex IV): improved | left ventricular fractional shortening (% FS) (HF model mice [8]): significantly improved
